Marks after values point to notes of the source that are not given here.
Assays:
[1] = target: opioid receptor subtype μ (Homo sapiens, UniProt P35372); test: Competitive binding to opioid receptor subtype μ, [3H]Diprenorphine
Description: (§1) The respective test compounds were added to the sample tube (final concentration of 10^−5M), incubated at 37° C. for 30 min and placed in ice bath to terminate the reaction. The reaction mixture was filtered through GF/C (Whatman) glass fiber filter by vacuum filtration on a Millipore sample collector. The filter was washed three times with 50 mM Tris-HCl (pH7.4), each with 4 ml; dried and transferred into a 0.5 ml Eppendorf tube, in which 0.5 ml lipophilic scintillation fluid was added. Radioactivity was detected by a LS6500 scintillation counter. Each concentration had three duplicate test tubes and each separate test was repeated 3 to 4 times.
(§2) Specific binding CMP value for each sample tube=overall binding CPM value for each sample tube−CPM value of non-specific binding tube.
(§3) [Inhibition percentage of competitive binding between the test compound and different opioid receptor subtypes (%)=(100%−specific binding (CPM value)of sample tube/specific binding(CPM value)of solvent group×100%)]
(§4) Average was taken for each test drug from three duplicate tubes; each test was repeated two or more times.

[2] = target: opioid receptor subtype δ (Homo sapiens, UniProt P41143); test: Competitive binding to opioid receptor subtype δ, [3H]Diprenorphine
Description: as §1, §2, §3
Average was taken for each test drug from three duplicate tubes; each test was repeated two or more times. Data were presented as mean±SE and statistical comparison was made by ANOVA.

Kunming mice = test: Acetic acid-induced abdominal writhing test in mice; assay type: in vivo
Description: Kunming mice, SPF KM mice purchased from […] SLAC LABORATORY ANIMAL CO. LTD and kept in normal environment.
The compounds were dissolved in water for injection at a concentration of 4 mg/ml, 2 mg/ml and 1 mg/ml and were given intragastrically to animals.
Three different doses (10, 20, and 40 mg/kg) were administered to the test groups.
Aspirin was used as a positive control and acetic acid writhing test was used.
30 mice (half male and half female) weighing 18-23 g were divided into five groups, including negative control group, positive control group, low dose group, medium dose group and high dose group:
Mice in test group received test drug (10 mg/kg, 20 mg/kg, 40 mg/kg) via intragastric administration. Negative control group received physiological saline (20 ml/kg) via oral administration. Positive control group received aspirin (200 mg/kg) via oral administration. One hour later, each group received 0.7% acetic acid 10 ml/kg intraperitoneally. Five minutes later, the number of writhes was counted within the subsequent 15 min period; inhibition percentage of writhing response in each test group was calculated by the following equation: […]

[3] = Acute toxicity, single intragastric administration to mice; settings: mouse, in vivo, po, Bliss method
From the text: Statistics were made according to Bliss method (“Experimental Design and Statistical Basis for Drug Evaluation”, Changxiao Liu, Ruiyuan Su, first edition, Military Medical Science Press, 1993, 80-90).

[4] = Animal model study of II-9 (repeated dosing, addiction potential, oral absorption); assay type: in vivo
[5] = target: opioid receptor subtype κ (Homo sapiens, UniProt P41145); test: Competitive binding to opioid receptor subtype κ, [3H]Diprenorphine
Description: as §1, §2, §3, §4

Question: Which “affinity to opioid receptor subtype μ (in words)” value [1] does the source give for `N#Cc1ccc2ccn(CCCCN3CCC(c4noc5cc(F)ccc45)CC3)c2c1` [II-9, 1-(4-(4-(6-fluorobenzo[d]isoxazol-3-yl)piperidin-1-yl)butyl)-1H-indole-6-carbonitrile] here?
Answer: no obvious affinity

Question: What about the inhibition at 10 µM ([1]; tested concentration 10^−5 mol/L, read-out: μ inhibition percentage of competitive binding) of the same compound?
Answer: 53.4 ± 0.7%

Question: What about the “affinity to opioid receptor subtype δ (in words)” value [2] of the same compound?
Answer: no obvious affinity

Question: And the inhibition at 10 µM ([2]; tested concentration 10^−5 mol/L, read-out: δ inhibition percentage of competitive binding)?
Answer: 0%

Question: What about the “Inhibition percentage of writhing response” value (“Inhibition percentage” for short) (Kunming mice; 10 mg/kg intragastric administration) of the same compound?
Answer: 100** %

Question: What about the “Inhibition percentage” value (Kunming mice; 20 mg/kg intragastric administration) of the same compound?
Answer: 99.05* %

Question: What about the “Inhibition percentage” value (Kunming mice; 40 mg/kg intragastric administration) of the same compound?
Answer: 100** %

Question: And the LD50 [3]?
Answer: 800 mg/kg

Question: What about the drug tolerance ([4]; after repeated dosing) of the same compound?
Answer: No drug tolerance is observed

Question: What about the potential for addiction ([4]; in vivo) of the same compound?
Answer: rather low

Question: What about the “absorption through oral administration” value ([4]; oral) of the same compound?
Answer: well absorbed

Question: And the “affinity to opioid receptor subtype κ (in words)” value [5]?
Answer: no obvious affinity

Question: What about the inhibition at 10 µM ([5]; tested concentration 10^−5 mol/L, read-out: κ inhibition percentage of competitive binding) of the same compound?
Answer: 28.5 ± 1.3%
